Assay results: patent US20110015225A1, “Heterocyclic compound” (Takeda Pharmaceutical Company Limited, priority 2008, published 2011)

Each compound was assayed against MCH receptor (SLC-1) (UniProt Q99705) (assay: MCH receptor antagonistic activity using GTPγS binding assay). Conditions: [35S]-GTPγS binding, membrane fractions of SLC-1 expression CHO cells, 3×10^−10 M MCH, 25° C. 1 hr; read-out: Inhibitory Activity (IC50 value: nM).
Assay type: biochemical, human
Procedure: Using human SLC-1 expression CHO cell clone 57 and rat SLC-1 expression CHO cell clone 44 described in WO01/82925, membrane fractions of SLC-1 expression CHO cells were prepared by the following method. In phosphate buffered saline (pH 7.4) supplemented with 5 mM EDTA (ethylenediaminetetraacetic acid) were suspended human and rat SLC-1 expression CHO cells (1×10^8) and centrifuged. Homogenate buffer (10 ml, 10 mM […], 5 mM EDTA, pH 7.5) was added to the pellets of the cells and, using Polytron Homogenizer, the mixture was homogenated. The supernatant obtained after centrifugation at 400×g for 15 min was further centrifuged at 100,000×g for 1 hr to give precipitate of the membrane fraction. The precipitate was suspended in 2 ml of an assay buffer [50 mM Tris-HCl (pH 7.5), 1 mM EDTA, 0.1% BSA (bovine serum albumin), 10 mM MgCl2, 100 mM NaCl, 1 μM GDP (guanosine 5′-diphosphate), 0.25 mM PMSF (phenylmethylsulfonyl fluoride), […]] and centrifuged at 100,000×g for 1 hr. The membrane fraction recovered as precipitate was suspended again in 20 ml of an assay buffer, and after dispensing, preserved at −80° C. and used upon thawing each time when in use.
The MCH receptor antagonistic activity of the test compound was determined as follows. The membrane fractions of SLC-1 expression CHO cells (171 μl) diluted with an assay buffer was dispensed to a polypropylene 96 well plate and 3×10^−10 M MCH (2 μl) diluted with DMSO solution, test compound solution (2 μl) diluted to various concentrations and [^35S]-Guanosine 5′-(γ-thio)triphosphate (25 μl, Daiichi Pure Chemicals Co., Ltd.) were respectively added (cellular membrane final concentration: 20 μg/ml, [^35S]-Guanosine 5′-(γ-thio)triphosphate final concentration: 0.33 nM). The reaction mixture was reacted at 25° C. for 1 hr with stirring, suction filtered with a glass filter (GF-C) and washed 3 times with a wash solution (300 μl, 50 mM Tris-HCl buffer, pH 7.5). Liquid scintillator ([…]) was added to the glass filter and the residual radioactivity was determined by a liquid scintillation counter.
Binding inhibition (%)=(radioactivity upon addition of test compound and MCH−radioactivity upon addition of DMSO solution)/(radioactivity upon addition of MCH−radioactivity upon addition of DMSO solution)×100
From the binding inhibition (%), IC50 of the test compound was calculated.

IC50 [nM] | SMILES
2.2 | Cc1c(NC(=O)c2ccc(C#CC3CC3)cc2)ccc2cc(CNC3CCS(=O)(=O)CC3)cnc12 [Ex. 41, 4-(cyclopropylethynyl)-N-(3-{[(1,1-dioxidotetrahydro-2H-thiopyran-4-yl)amino]methyl}-8-methylquinolin-7-yl)benzamide]
2.3 | Cc1c(NC(=O)c2ccc(C#CC3CC3)cc2)ccc2cc(CNC3CCN(S(C)(=O)=O)CC3)cnc12 [Ex. 42, 4-(cyclopropylethynyl)-N-[8-methyl-3-({[1-(methylsulfonyl)piperidin-4-yl]amino}methyl)quinolin-7-yl]benzamide]
4.7 | Cc1c(NC(=O)c2ccc(C#CC3CC3)cc2)ccc2cc(CNCC3(O)CCS(=O)(=O)CC3)cnc12 [Ex. 43, 4-(cyclopropylethynyl)-N-[3-({[(4-hydroxy-1,1-dioxidotetrahydro-2H-thiopyran-4-yl)methyl]amino}methyl)-8-methylquinolin-7-yl]benzamide]
2.2 | Cc1c(NC(=O)c2ccc(C#CC3CC3)cc2)ccc2cc(CNCCCS(C)(=O)=O)cnc12 [Ex. 44, 4-(cyclopropylethynyl)-N-[8-methyl-3-({[3-(methylsulfonyl)propyl]amino}methyl)quinolin-7-yl]benzamide]
4.9 | Cc1c(NC(=O)c2ccc(/C=C/C3CC3)cc2)ccc2cc(CNC3CCS(=O)(=O)CC3)cnc12 [Ex. 45, 4-[(E)-2-cyclopropylvinyl]-N-(3-{[(1,1-dioxidotetrahydro-2H-thiopyran-4-yl)amino]methyl}-8-methylquinolin-7-yl)benzamide]
4.4 | O=C(Nc1ccc2cc(CNC3CCS(=O)(=O)CC3)ccc2c1)c1ccc(OCC2CC2)cc1 [Ex. 46, 4-(cyclopropylmethoxy)-N-(6-{[(1,1-dioxidotetrahydro-2H-thiopyran-4-yl)amino]methyl}naphthalen-2-yl)benzamide]
6.7 | CC1=C(CNC2CCS(=O)(=O)CC2)CCc2cc(NC(=O)c3ccc(OCC4CC4)cc3)ccc21 [Ex. 47, 4-(cyclopropylmethoxy)-N-(6-{[(1,1-dioxidotetrahydro-2H-thiopyran-4-yl)amino]methyl}-5-methyl-7,8-dihydronaphthalen-2-yl)benzamide]
